One test has as its system PDGF-R. The test is described as follows: PDGF-R Assay (cellular ELISA, U1242 cells). Type of test: cell-based. Also noted: concentration or dose not given beside the values. As to conditions: protocol P.119. Summed up: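 Cellular ELISA for receptor autophosphorylation: after 2 hr test-compound treatment of serum-free U1242 cells at 37°C, ligand is added for 5–10 min, cells are lysed (HNTG) and receptor captured by specific antibody. Anti-phosphotyrosine plus secondary antibody with ABTS colour read at 410/630 nm, compared with compound-free control cells.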
For orientation: In an ELISA, binding on a coated surface is turned into a signal by an enzyme label.

A further test has as its target T1, EGFR (Homo sapiens, UniProt P00533).
T1 construct: endogenous in cells; host or cells: A431 cells (lysate, captured with SUMO1 anti-EGFR antibody)
The test is described as follows: Biochemical EGFR Assay. Also on record: concentration or dose not given beside the values. Particulars: protocol P.167. Put shortly:
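Readout is ABTS absorbance at 410 nm after anti-phosphotyrosine and HRP-antibody detection of EGFR autophosphorylation. The kinase was immunocaptured from A431 lysate, exposed 30 min to test compound diluted 1:10 in TBS, then phosphorylated for 5 min with ATP/MnCl2 before an EDTA stop.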

1 compound from patent US20020026053A1, “Novel 3-(substituted) -2- indolinones compounds and use thereof as inhibitors of protein kinase activity” (priority 1997, published 2002) can be followed below.

T1 sequence (P00533 25-1210): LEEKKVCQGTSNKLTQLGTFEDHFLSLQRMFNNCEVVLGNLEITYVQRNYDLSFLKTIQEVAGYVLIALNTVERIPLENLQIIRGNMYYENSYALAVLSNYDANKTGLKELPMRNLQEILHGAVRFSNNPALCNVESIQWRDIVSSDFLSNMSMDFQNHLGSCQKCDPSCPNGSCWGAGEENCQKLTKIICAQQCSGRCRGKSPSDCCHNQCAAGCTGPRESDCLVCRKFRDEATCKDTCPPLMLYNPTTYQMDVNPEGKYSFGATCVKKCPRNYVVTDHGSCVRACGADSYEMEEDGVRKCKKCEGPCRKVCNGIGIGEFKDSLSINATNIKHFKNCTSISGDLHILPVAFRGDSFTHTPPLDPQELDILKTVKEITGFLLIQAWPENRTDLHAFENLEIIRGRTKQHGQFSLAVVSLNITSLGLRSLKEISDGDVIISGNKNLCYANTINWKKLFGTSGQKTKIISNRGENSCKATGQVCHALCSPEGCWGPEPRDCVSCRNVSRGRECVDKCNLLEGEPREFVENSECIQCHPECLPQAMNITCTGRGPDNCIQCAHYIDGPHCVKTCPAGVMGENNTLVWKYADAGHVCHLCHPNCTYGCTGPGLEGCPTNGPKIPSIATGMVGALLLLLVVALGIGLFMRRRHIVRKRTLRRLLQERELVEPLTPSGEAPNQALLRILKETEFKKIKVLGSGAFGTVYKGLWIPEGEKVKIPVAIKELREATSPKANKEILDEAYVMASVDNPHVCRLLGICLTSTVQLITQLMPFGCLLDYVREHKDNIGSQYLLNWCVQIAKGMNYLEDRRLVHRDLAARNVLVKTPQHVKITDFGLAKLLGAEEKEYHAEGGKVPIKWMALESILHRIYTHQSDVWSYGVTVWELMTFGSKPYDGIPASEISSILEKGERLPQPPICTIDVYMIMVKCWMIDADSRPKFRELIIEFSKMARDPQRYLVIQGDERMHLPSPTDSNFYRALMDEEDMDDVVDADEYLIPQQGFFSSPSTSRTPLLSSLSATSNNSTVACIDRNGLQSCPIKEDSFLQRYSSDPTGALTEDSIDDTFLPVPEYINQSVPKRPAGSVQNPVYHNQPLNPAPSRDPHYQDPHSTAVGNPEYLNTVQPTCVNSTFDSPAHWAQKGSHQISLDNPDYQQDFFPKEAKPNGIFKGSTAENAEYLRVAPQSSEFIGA

For `Cc1c(Br)cc(Br)c2c1C(=Cc1ccc(CO)o1)C(=O)N2` [10739/H11], the “PDGF Kinase % Inhibition (P.119)” value with PDGF-R came out at 4.2%. Moreover, at EGFR, the “Biochem EGFR % Inhibition (P.167)” value amounted to 49.9%.
